{"source": "patent US20200345747A1", "about": "“USE OF […] THE TREATMENT OF HEMOLYTIC UREMIC SYNDROME” (priority 2017, published 2020)", "key": {"[1]": {"details": "off-label, doses 10 times lower than the standard dosage; cited from earlier work"}, "alpha1": {"system": "alpha1", "details": "cited from earlier work"}, "5HT1": {"system": "5HT1", "details": "cited from earlier work"}, "muscarinic receptors": {"system": "muscarinic receptors", "details": "cited from earlier work"}, "5HT2": {"system": "5HT2", "details": "cited from earlier work"}, "[2]": {"details": "human, in vivo"}, "[3]": {"assay": "Initial treatment of patients with atypical HUS (HUSa) with Fenoldopam", "assay_type": "in vivo, human"}, "α2 adrenergic receptors": {"system": "α2 adrenergic receptors", "details": "cited from earlier work"}, "dopamine receptor D1": {"molecular_target": "dopamine receptor D1 (Homo sapiens, UniProt P21728)", "sequence (P21728 whole entry, species assumed)": "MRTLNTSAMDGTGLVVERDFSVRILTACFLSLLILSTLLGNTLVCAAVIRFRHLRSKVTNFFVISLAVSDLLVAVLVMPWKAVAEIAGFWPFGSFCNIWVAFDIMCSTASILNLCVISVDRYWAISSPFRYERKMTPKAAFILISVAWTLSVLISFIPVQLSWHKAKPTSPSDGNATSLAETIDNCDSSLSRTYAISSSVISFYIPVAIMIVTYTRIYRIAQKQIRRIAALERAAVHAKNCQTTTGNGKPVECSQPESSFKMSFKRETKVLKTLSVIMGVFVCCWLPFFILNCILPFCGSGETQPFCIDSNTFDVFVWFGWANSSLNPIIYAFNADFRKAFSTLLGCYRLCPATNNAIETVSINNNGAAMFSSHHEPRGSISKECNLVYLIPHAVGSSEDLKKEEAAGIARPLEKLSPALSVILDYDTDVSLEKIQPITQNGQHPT", "details": "cited from earlier work"}, "D2": {"molecular_target": "D2 (Homo sapiens, UniProt P14416)", "sequence (P14416 whole entry)": "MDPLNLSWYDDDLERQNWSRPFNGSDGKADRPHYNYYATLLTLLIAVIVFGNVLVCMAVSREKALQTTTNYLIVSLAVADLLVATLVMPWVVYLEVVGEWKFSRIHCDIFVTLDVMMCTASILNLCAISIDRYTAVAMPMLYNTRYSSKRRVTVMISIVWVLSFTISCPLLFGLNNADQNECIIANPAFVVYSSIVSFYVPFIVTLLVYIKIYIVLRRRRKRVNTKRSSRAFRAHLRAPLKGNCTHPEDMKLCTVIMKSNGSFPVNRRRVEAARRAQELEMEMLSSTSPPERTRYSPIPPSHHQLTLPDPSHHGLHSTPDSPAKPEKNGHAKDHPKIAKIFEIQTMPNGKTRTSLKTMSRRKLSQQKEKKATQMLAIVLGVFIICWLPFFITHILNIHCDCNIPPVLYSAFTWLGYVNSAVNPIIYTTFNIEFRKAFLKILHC", "details": "cited from earlier work"}}, "note": "Structures can show the parent of a compound that is named as a salt."}
{"smiles": "Oc1ccc(C2CNCCc3c2cc(O)c(O)c3Cl)cc1", "note": "(stereo not shown) [Fenoldopam, Fenoldopam mesylate]", "values": [{"measurement": "efficacy in acute renal failure", "setting": "[1]", "value": "contrasting efficacy results"}, {"measurement": "side effects in acute renal failure use", "setting": "[1]", "value": "without the observation of any side effects"}, {"measurement": "affinity for alpha1 receptors", "setting": "alpha1", "value": "does not have any affinity"}, {"measurement": "affinity for 5HT1 receptors", "setting": "5HT1", "value": "does not have any affinity"}, {"measurement": "affinity for muscarinic receptors", "setting": "muscarinic receptors", "value": "does not have any affinity"}, {"measurement": "affinity for 5HT2 receptors", "setting": "5HT2", "value": "does not have any affinity"}, {"measurement": "levels of creatininemia versus control groups", "setting": "[2]", "value": "lower (compared with group 1) or equivalent (with group 2)"}, {"measurement": "mean days in dialysis", "setting": "[2]", "value": "0.3 (CI: 0-1.1) days"}, {"measurement": "neurological effects during the acute phase", "setting": "[2]", "value": "None"}, {"measurement": "permanent kidney or other damage", "setting": "[2]", "value": "None"}, {"measurement": "preservation of kidney function (subjects treated)", "setting": "[2]", "value": "10 of the 12"}, {"measurement": "reduction of the real resistive index, \"on\" versus \"off\" therapy", "setting": "[2]", "value": "−10.8", "unit": "%"}, {"measurement": "side effects attributable to treatment", "setting": "[2]", "value": "none"}, {"measurement": "subjects needing dialytic support during the acute phase of the disease", "setting": "[2]", "value": 17, "unit": "%"}, {"measurement": "natural course of the disease", "setting": "[3]; three cases of HUSa initially treated, before anti-CS antibody", "value": "less aggressive"}, {"measurement": "overall outcome after subsequent specific treatment", "setting": "[3]; three cases of HUSa, pretreated before anti-CS antibody", "value": "complete relief without permanent injuries"}, {"measurement": "affinity to α2 adrenergic receptors", "setting": "α2 adrenergic receptors", "value": "weak affinity"}, {"measurement": "activity at dopamine receptor D1", "setting": "dopamine receptor D1", "value": "partial agonist"}, {"measurement": "affinity for D2 receptors", "setting": "D2", "value": "does not have any affinity"}]}
